Assays:
[1] = molecular target: T1, Histone-arginine methyltransferase CARM1 (Homo sapiens, UniProt Q86X55); assay: Inhibition of CARM1 (unknown origin)
T1 sequence (Q86X55 whole entry): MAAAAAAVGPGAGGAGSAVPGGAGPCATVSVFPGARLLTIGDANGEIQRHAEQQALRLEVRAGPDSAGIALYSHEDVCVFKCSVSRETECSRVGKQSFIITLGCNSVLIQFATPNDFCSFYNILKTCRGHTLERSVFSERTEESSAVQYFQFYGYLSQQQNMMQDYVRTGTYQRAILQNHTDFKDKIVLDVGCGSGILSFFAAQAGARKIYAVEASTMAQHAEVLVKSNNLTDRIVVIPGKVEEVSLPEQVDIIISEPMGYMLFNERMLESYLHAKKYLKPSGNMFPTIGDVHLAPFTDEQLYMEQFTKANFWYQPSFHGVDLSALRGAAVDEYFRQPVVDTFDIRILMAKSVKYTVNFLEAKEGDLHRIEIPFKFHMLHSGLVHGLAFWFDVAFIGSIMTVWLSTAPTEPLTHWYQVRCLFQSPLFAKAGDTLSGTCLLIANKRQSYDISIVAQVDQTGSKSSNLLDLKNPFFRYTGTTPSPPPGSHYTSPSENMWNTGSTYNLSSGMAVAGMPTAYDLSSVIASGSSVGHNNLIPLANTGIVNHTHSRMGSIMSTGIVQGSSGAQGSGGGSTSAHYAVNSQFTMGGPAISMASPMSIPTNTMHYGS

[2] = molecular target: T1, Histone-arginine methyltransferase CARM1; assay: Inhibition of CARM1 (unknown origin) using histone H3 (21 to 44 residues) and SAM as substrates by AlphaLISA assay
[3] = molecular target: T2, Protein arginine N-methyltransferase 8 (Homo sapiens, UniProt Q9NR22); assay: Inhibition of PRMT8 (unknown origin) using SAM and Histone (1 to 21 residues) as substrate preincubated for 60 mins followed by substrate addition and measured after 40 mins by Topcount reader based analysis
T2 sequence (Q9NR22 whole entry, the tested form may be a part): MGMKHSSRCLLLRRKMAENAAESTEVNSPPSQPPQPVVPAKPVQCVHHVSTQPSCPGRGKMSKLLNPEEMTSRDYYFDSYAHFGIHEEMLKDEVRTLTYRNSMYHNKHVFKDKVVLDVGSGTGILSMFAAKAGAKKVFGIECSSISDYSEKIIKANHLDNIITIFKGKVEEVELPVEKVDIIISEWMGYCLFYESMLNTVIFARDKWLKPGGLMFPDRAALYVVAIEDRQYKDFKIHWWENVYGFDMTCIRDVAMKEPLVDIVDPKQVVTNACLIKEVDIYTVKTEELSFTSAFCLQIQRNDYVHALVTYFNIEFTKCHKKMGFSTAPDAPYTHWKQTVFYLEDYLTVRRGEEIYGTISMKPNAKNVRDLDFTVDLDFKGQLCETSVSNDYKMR

[4] = molecular target: T3, Protein arginine N-methyltransferase 6 (Homo sapiens, UniProt Q96LA8); assay: Inhibition of N-terminal His tagged human recombinant PRMT6 (2 to 375 residues) expressed in Escherichia coli using SAM and Histone (1 to 21 residues) as substrate preincubated for 60 mins followed by substrate addition and measured after 40 mins by Topcount reader based analysis
T3 sequence (Q96LA8 whole entry, the tested form may be a part): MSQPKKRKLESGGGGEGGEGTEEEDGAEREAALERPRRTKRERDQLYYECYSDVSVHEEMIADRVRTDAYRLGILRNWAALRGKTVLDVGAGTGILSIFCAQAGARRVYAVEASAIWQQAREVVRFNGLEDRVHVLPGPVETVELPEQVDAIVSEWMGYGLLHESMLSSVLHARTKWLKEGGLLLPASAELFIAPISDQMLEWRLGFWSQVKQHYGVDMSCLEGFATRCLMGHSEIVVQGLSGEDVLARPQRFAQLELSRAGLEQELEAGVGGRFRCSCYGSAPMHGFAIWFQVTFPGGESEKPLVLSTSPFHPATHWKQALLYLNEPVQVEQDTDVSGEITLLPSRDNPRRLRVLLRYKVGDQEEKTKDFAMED

[5] = molecular target: T1, Histone-arginine methyltransferase CARM1; assay: Inhibition of N-terminal FLAG tagged human PRMT4 (2 to end residues) expressed in FreeStyle 293-F cells using SAM and rHistone H3.1 as substrate preincubated for 60 mins followed by substrate addition and measured after 40 mins by Topcount reader based analysis
HCT-116 [6] = assay: Antiproliferative activity against human HCT-116 cells assessed as inhibition of cell growth by CCK-8 assay; type: functional, cell-based
[7] = molecular target: Protein arginine N-methyltransferase 1 (Homo sapiens, UniProt Q99873); assay: Inhibition of PRMT1 (unknown origin) by AlphaLISA assay
Sequence of Protein arginine N-methyltransferase 1 (Q99873 whole entry): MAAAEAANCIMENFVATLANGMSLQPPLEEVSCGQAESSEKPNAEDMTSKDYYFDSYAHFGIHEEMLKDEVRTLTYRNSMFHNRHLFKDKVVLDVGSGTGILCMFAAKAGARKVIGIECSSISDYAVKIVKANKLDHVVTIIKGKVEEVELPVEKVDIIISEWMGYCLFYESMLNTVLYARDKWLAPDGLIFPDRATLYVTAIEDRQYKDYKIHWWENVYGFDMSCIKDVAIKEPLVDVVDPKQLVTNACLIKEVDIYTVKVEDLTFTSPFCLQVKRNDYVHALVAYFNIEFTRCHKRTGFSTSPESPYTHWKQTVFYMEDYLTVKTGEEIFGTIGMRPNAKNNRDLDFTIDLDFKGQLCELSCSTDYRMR

in vitro [8] = conditions: mouse, liver microsomes
Description: Metabolic stability in mouse liver microsomes assessed as microsomal intrinsic clearance by LC-MS/MS analysis

HCT-116 [9] = assay: Induction of apoptosis in human HCT-116 cells assessed as dead cells at 0.63 uM measured after 72 hrs by Annexin V-FITC/PI staining based flow cytometry analysis (reference value: 1.07%); type: functional
HCT-116 [10] = assay: Potency index, ratio of GSK3368715 IC50 to test compound IC50 for antiproliferative activity against human HCT-116 cells assessed as inhibition of cell growth by CCK-8 assay; type: functional
HCT-116 [11] = assay: Induction of apoptosis in human HCT-116 cells assessed as dead cells at 1.25 uM measured after 72 hrs by Annexin V-FITC/PI staining based flow cytometry analysis (reference value: 1.07%); type: functional
HCT-116 [12] = assay: Induction of apoptosis in human HCT-116 cells assessed as dead cells at 2.5 uM measured after 72 hrs by Annexin V-FITC/PI staining based flow cytometry analysis (reference value: 1.07%); type: functional
[13] = molecular target: Protein arginine N-methyltransferase 5 (Homo sapiens, UniProt O14744); assay: Inhibition of PRMT5 (unknown origin) by AlphaLISA assay
Sequence of Protein arginine N-methyltransferase 5 (O14744 whole entry): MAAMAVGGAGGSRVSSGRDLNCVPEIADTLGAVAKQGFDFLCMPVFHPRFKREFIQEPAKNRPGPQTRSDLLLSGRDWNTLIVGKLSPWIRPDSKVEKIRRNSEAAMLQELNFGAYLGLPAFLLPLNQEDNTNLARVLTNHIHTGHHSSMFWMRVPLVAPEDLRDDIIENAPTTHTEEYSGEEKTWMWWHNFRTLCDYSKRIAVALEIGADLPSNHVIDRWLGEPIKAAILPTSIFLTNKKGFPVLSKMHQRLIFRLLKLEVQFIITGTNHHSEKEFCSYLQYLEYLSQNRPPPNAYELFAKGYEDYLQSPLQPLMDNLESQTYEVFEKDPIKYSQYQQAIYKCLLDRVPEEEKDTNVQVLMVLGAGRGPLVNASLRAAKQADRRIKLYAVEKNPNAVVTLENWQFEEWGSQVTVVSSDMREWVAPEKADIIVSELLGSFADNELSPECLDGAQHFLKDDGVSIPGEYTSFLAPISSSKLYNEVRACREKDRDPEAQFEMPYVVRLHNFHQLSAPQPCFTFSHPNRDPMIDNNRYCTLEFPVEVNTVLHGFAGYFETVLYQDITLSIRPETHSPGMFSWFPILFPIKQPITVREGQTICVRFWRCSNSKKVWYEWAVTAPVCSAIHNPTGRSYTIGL

[14] = molecular target: T2, Protein arginine N-methyltransferase 8; assay: Inhibition of PRMT8 (unknown origin) by AlphaLISA assay
in vitro [15] = conditions: mouse, liver microsomes; remark: listed apart in the source
Description: Metabolic stability in mouse liver microsomes assessed as half life by LC-MS/MS analysis

HCT-116 [16] = assay: Induction of apoptosis in human HCT-116 cells assessed as late apoptotic cells at 2.5 uM measured after 72 hrs by Annexin V-FITC/PI staining based flow cytometry analysis (reference value: 1.53%); type: functional
[17] = molecular target: Protein arginine N-methyltransferase 3 (Homo sapiens, UniProt O60678); assay: Inhibition of PRMT3 (unknown origin) by AlphaLISA assay
Sequence of Protein arginine N-methyltransferase 3 (O60678 whole entry): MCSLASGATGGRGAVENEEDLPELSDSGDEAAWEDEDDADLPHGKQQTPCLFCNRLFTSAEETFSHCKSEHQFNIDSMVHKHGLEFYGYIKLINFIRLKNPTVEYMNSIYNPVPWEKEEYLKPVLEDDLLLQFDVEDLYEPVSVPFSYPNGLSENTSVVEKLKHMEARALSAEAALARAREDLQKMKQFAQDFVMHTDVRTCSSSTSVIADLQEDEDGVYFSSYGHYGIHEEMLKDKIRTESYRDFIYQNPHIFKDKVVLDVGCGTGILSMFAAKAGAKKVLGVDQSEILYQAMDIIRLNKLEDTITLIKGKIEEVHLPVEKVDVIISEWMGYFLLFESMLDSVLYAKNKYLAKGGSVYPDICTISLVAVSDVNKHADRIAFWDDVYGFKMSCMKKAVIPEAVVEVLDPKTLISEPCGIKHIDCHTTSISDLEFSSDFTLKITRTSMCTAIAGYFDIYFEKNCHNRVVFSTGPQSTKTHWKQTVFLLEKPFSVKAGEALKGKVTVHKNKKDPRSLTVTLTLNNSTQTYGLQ

HCT-116 [18] = assay: Induction of apoptosis in human HCT-116 cells assessed as late apoptotic cells at 1.25 uM measured after 72 hrs by Annexin V-FITC/PI staining based flow cytometry analysis (reference value: 1.53%); type: functional
in vitro [19] = conditions: mouse, liver microsomes; remark: listed apart in the source
Description: Metabolic stability in mouse liver microsomes assessed as intrinsic clearance by LC-MS/MS analysis

HCT-116 [20] = assay: Induction of apoptosis in human HCT-116 cells assessed as dead cells at 5 uM measured after 72 hrs by Annexin V-FITC/PI staining based flow cytometry analysis (reference value: 1.07%); type: functional
[21] = molecular target: T3, Protein arginine N-methyltransferase 6; assay: Inhibition of PRMT6 (unknown origin) by AlphaLISA assay
HCT-116 [22] = assay: Induction of apoptosis in human HCT-116 cells assessed as late apoptotic cells at 0.63 uM measured after 72 hrs by Annexin V-FITC/PI staining based flow cytometry analysis (reference value: 1.53%); type: functional
HCT-116 [23] = assay: Induction of apoptosis in human HCT-116 cells assessed as late apoptotic cells at 5 uM measured after 72 hrs by Annexin V-FITC/PI staining based flow cytometry analysis (reference value: 1.53%); type: functional

| IC50 [2] [nM] | IC50 (HCT-116 [6]) [nM] | IC50 [7] [nM] | SMILES | microsomal CLint (in vitro [8]) [µL/min/mg] | Ratio IC50 (HCT-116 [10]) | IC50 [13] [nM] | IC50 [14] [nM] | half-life (in vitro [15]) [h] | IC50 [17] [nM] | CLint scaled (in vitro [19]) [mL/min/kg] | IC50 [21] [nM] | further results |
| --- | --- | --- | --- | --- | --- | --- | --- | --- | --- | --- | --- | --- |
| – | – | – | CNCCN1CCC(c2ccc3c(F)c(-c4ccccc4OC)[nH]c3c2)CC1 | – | – | – | – | – | – | – | – | IC50 [1]: 30 nM |
| 12 | 38200 | – | CCOCC1(COCC)CCC(c2n[nH]cc2CN(C)CCNC)CC1 | – | – | – | – | – | – | – | – | IC50 [3]: 1.7 nM; IC50 [4]: 1.7 nM; IC50 [5]: 1.7 nM |
| 37 | – | 281 | CCOCC1(COCC)CCC(Oc2ccccc2CN(C)C[C@H](O)CNC)CC1 | – | – | – | – | – | – | – | – | – |
| 7 | 2960 | 56 | CNCCN(C)Cc1ccccc1OC1CCC(COC)(COC)CC1.Cl.Cl | 30.4 | >10 | > 100000 | 24 | 0.76 | 493 | 120 | 12 | – |

| SMILES | IC50 [2] [nM] | IC50 (HCT-116 [6]) [nM] | IC50 [7] [nM] | microsomal CLint (in vitro [8]) [µL/min/mg] | Ratio IC50 (HCT-116 [10]) | IC50 [13] [nM] | IC50 [14] [nM] | half-life (in vitro [15]) [h] | IC50 [17] [nM] | CLint scaled (in vitro [19]) [mL/min/kg] | IC50 [21] [nM] | further results |
| --- | --- | --- | --- | --- | --- | --- | --- | --- | --- | --- | --- | --- |
| CCOCC1(COCC)CCC(Oc2ccccc2CN(C)C[C@@H](O)CNC)CC1 | 9 | 3130 | 56 | 6.4 | >10 | > 100000 | 31 | 3.62 | 2640 | 25.3 | 10 | Activity (HCT-116 [9]): 1.32%; Activity (HCT-116 [11]): 1.83%; Activity (HCT-116 [12]): 1.52%; Activity (HCT-116 [16]): 2.13%; Activity (HCT-116 [18]): 1.09%; Activity (HCT-116 [20]): 2.14%; Activity (HCT-116 [22]): 0.87%; Activity (HCT-116 [23]): 1.3% |
